One assay concerns human B cells. Put plainly: Human B cells proliferation stimulated by anti-IgM. Format: cell-based. The conditions noted are these: B-cell; anti-Human IgM + CD40L-LZ, 72 h, 3H thymidine. As to the method: Human B Cells Proliferation Stimulate by Anti-IgM
Isolate PBMCs from Leukopac or from human fresh blood. Isolate human B cells by using Miltenyi protocol and B cell isolation kit II.—human B cells were Purified by using AutoMacs.column.
Activation of Human B Cells
Use 96 well Flat bottom plate, plate 50000/well purified B cells in B cell proliferation medium (DMEM+5% FCS, 10 mM Hepes, 50 μM 2-mercaptoethanol); 150 μL medium contain 250 ng/mL CD40L-LZ recombinant protein (Amgen) and 2 μg/mL anti-Human IgM antibody (Jackson ImmunoReseach Lab.# 109-006-129), mixed with 50 μL B cell medium containing PI3K inhibitors and incubate 72 h at 37° C. incubator. After 72 h, pulse labeling B cells with 0.5-1 uCi/well ^3H thymidine for overnight ˜18 h, and harvest cell using TOM harvester.

Assay [1] deals with model of systemic lupus erythematosis. The conditions noted are these: in vivo; cited from earlier work.
The subject of assay [2] is mouse model of rheumatoid arthritis. The conditions noted are these: in vivo; cited from earlier work.
A further assay concerns the target T1, p110δ (Homo sapiens, UniProt O00329).
T1 sequence (O00329 1-1044): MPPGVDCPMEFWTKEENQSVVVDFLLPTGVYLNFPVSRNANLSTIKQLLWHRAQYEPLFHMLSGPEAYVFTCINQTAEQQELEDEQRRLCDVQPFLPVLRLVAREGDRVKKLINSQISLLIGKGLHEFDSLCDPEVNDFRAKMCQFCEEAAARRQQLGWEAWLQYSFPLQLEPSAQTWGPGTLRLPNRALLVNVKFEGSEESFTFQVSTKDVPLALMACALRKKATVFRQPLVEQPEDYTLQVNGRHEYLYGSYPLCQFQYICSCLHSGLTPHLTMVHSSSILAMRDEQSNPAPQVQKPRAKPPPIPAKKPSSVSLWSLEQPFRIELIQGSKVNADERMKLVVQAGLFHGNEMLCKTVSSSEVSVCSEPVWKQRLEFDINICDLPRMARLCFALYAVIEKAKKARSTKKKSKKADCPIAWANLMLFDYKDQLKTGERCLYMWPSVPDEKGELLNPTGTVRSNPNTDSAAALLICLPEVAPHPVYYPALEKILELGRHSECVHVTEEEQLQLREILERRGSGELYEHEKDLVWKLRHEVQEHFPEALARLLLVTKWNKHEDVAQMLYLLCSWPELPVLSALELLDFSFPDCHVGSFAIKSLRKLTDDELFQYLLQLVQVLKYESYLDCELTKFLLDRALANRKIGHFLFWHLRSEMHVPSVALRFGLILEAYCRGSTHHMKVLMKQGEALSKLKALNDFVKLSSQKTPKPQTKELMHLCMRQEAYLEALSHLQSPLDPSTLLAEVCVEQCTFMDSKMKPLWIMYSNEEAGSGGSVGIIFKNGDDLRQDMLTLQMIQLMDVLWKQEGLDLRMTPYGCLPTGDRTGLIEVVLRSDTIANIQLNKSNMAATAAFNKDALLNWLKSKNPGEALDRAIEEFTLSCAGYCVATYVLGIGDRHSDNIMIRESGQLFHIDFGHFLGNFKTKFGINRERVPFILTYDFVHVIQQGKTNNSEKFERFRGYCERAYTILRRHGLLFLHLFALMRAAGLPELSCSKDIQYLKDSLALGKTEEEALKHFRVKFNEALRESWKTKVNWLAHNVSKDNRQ
The conditions noted are these: cited from earlier work.

In the next assay the test system is murine model of asthma. The conditions noted are these: ovalbumin-induced airway inflammation; cited from earlier work.
The test system of the next assay is protein kinases. The settings on record: cited from earlier work.

As a reminder, the IC50 is the concentration at which inhibition is half-maximal.

Turning to `Cc1cccc2nc(Cn3nc(I)c4c(N)ncnc43)c(-c3cccc(F)c3)c(=O)n12` [2-((4-amino-3-iodo-1H-pyrazolo[3,4-d]pyrimidin-1-yl)-methyl)-3-(3-fluorophenyl)-6-methyl-4H-pyrido[1,2-a]pyrimidin-4-one], in the assay with human B cells, the IC50 amounted to 0.512 µM.

On to `Cc1cccc2nc(Cn3nc(C#N)c4c(N)ncnc43)c(-c3ccccc3Cl)nc12` [4-Amino-1-((3-(2-chlorophenyl)-5-methylquinoxalin-2-yl)methyl)-1H-pyrazolo[3,4-d]pyrimidine-3-carbonitrile], for which the half-maximal inhibitory concentration (IC50) in the assay on human B cells turned out to be 0.00199 µM.

For `Cc1cccc2nc(-c3ccccc3Cl)c(Cn3nc(C#N)c4c(N)ncnc43)nc12` [4-Amino-1-((3-(2-chlorophenyl)-8-methylquinoxalin-2-yl)methyl)-1H-pyrazolo[3,4-d]pyrimidine-3-carbonitrile], the IC50 in the assay on human B cells worked out at 0.0838 µM.

Regarding `O=C1NC(=O)/C(=C\c2ccc3nccnc3c2)S1` [AS 605240], the “onset of disease in model of systemic lupus erythematosis” value in assay [1] is on record as “delay onset of disease”. Also, the “efficacy in mouse model of rheumatoid arthritis” value in assay [2] is listed as “efficacious”.

As for `Cc1nn([C@@H](C)c2cc3cccc(Cl)c3nc2-c2cccc(F)c2)c2ncnc(N)c12` [Example 23, 1-((S)-1-(8-chloro-2-(3-fluorophenyl)quinolin-3-yl)ethyl)-3-methyl-1H-pyrazolo[3,4-d]pyrimidin-4-amine], the 50% inhibitory concentration (IC50) in the assay on human B cells was found to be 0.00157 µM.

On to `Nc1ncnc2c1c(I)nn2Cc1cc2c(Cl)cccc2nc1-c1ccccc1Cl` [Example 25, 1-((5-Chloro-2-(2-chlorophenyl)quinolin-3-yl)methyl)-3-iodo-1H-pyrazolo-[3,4-d]pyrimidin-4-amine], for which the 50% inhibitory concentration (IC50) in the assay on human B cells stood at 0.0934 µM.

Consider `Cn1cc(-c2nn(Cc3cc4c(Cl)cccc4nc3-c3ccccc3Cl)c3ncnc(N)c23)cn1` [Example 26, 1-((5-chloro-2-(2-chlorophenyl)quinolin-3-yl)methyl)-3-(1-methyl-1H-pyrazol-4-yl)-1H-pyrazolo[3,4-d]pyrimidin-4-amine], for which the IC50 in the assay with human B cells was 0.0467 µM.

For the molecule `Cc1nn(Cc2cc3cccc(Cl)c3nc2-c2ccccc2C(F)(F)F)c2ncnc(N)c12` [Example 30, 1-((8-chloro-2-(2-(trifluoromethyl)phenyl)quinolin-3-yl)methyl)-3-methyl-1H-pyrazolo[3,4-d]pyrimidin-4-amine], in the assay with human B cells, the IC50 stood at 0.0448 µM.

As to `Cc1nn(Cc2cc3c(Cl)cccc3nc2-c2ccccc2C(F)(F)F)c2ncnc(N)c12` [Example 31, 1-((5-Chloro-2-(2-(trifluoromethyl)phenyl)quinolin-3-yl)methyl)-3-methyl-1H-pyrazolo[3,4-d]pyrimidin-4-amine], the half-maximal inhibitory concentration (IC50) with human B cells is 0.136 µM.

As for `Cc1ccccc1-n1c(Cn2cnc3c(N)ncnc32)nc2cccc(C)c2c1=O` [IC87114], the “inhibition of p110δ” value at p110δ is “high nanomolar range (triple digit)”. Also, the “inflammation and disease in murine model of asthma” value with murine model of asthma is “significantly ameliorate inflammation and disease”. Further, the “activity against any protein kinases tested” value in the assay with protein kinases was “no activity”.

These data come from patent US7919498B2, “Substituted pyrazolo[3,4-d]pyrimidines as PI3K inhibitors” (Amgen Inc., priority 2007, dated 2011).
